According to US20220347297A1, “METHODS OF PERMITTING A SUBJECT TO RECEIVE MULTIPLE DOSES OF RECOMBINANT ADENO-ASSOCIATED VIRUS” (University of Florida Research Foundation, Incorporated, priority 2014, published 2022):
Entries after “also recorded” stand apart in the source; their conditions may differ.

How the values were obtained:
[1] = system: B-cells (CD20), CD3 positive lymphocytes; assay: Enumeration of B- and T-lymphocyte subpopulations in peripheral blood by flow cytometry; assay type: in vivo, human; conditions: 375 mg/m^2 weekly for 3 weeks, then at 12 weeks intervals
Procedure: Enumeration of B- and T-lymphocyte subpopulations in peripheral blood was done by flow cytometry using monoclonal Abs to CD19 or CD20 for B cells and monoclonal Abs to CD3, CD4, and CD8 for T cells. Sirolimus trough levels, IgG, CD3, CD4, CD8, CD19, CD20, N-terminal pro-brain natriuretic peptide, creatine kinase, creatine kinase-MB, C-reactive protein, platelets, alkaline phosphatase, gamma-glutamyl transferase, aspartate aminotransferase, and alanine aminotransferase were measured at regular intervals.

AAV1 capsid proteins = assay: ELISA for circulating antibodies to AAV1 capsid in serum of Pompe subjects; conditions: Pompe patient, rituximab with sirolimus prior to rAAV1-GAA
Procedure: Serum samples were assayed by ELISA for circulating antibodies to the AAV1 capsid proteins.
Serum samples were assayed by enzyme linked immunosorbent assay (ELISA) for circulating antibodies to the intact AAV1 capsid and hGAA protein 21, 46. Anti-AAV1 and anti-hGAA ASR and ELISPOT assay were performed as previously described on isolated peripheral blood mononuclear cells (ref. 47).

[2] = system: anti-rAAV NAbs / GAA antibody responses; conditions: cited from earlier work

Rituximab: monoclonal antibody that induces B-cell depletion by binding the CD20 protein found on the surface of B-cells
CD20 counts (B-cells) [1]: complete depletion | immune response to rAAV vector (capsid and transgene) after B-cell depletion prior to vector exposure (AAV1 capsid proteins): immune non-responsiveness; also recorded: nonresponsiveness to both capsid and transgene | GAA antibody responses to ERT ([2]; CRIM-negative infants with early-onset Pompe disease, Rituximab plus Sirolimus before initiation of ERT (Elder et al.)): able to block GAA antibody responses | existing anti-rAAV NAbs ([2]; humans receiving rituximab for rheumatoid arthritis (ref. 33) and non-human primates): successful in reduction
